This note sets out measurements from PubChem BioAssay (NCI).

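In this assay, cells in 96-well plates receive the compound at five concentrations for 48 hours. Endpoints are linearly interpolated between the surrounding concentrations. Abbreviation: GI50, concentration required for 50% inhibition of growth. TGI denotes the concentration required for complete inhibition of growth.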

Holding throughout (experiment): NCI-60 cell line screen, 48 h
In experiment [1] the test system is M14 melanoma.
The test system of experiment [2] is TK-10 renal.
The subject of experiment [3] is CCRF-CEM leukemia.
Experiment [4] deals with OVCAR-4 ovarian.
Experiment [5] relates to MOLT-4 leukemia.
The test system of experiment [6] is SW-620 colon.
Experiment [7] concerns IGROV1 ovarian.
The test system of experiment [8] is PC-3 prostate.
Experiment [9] relates to CAKI-1 renal.

For the compound `NC1CCCCC1N.O=C([O-])P(=O)([O-])[O-].[Na+].[Pt+4]` (stereo unspecified), the GI50 in experiment [1] is over 100 µM; in experiment [2], over 100 µM; in [3] it was over 100 µM; in experiment [4], over 100 µM; in experiment [5] it was 29.1 µM; in experiment [6], 28.8 µM. For the same compound, the GI50 in experiment [7] is over 100 µM. Further, the TGI in [1], in [2], in experiment [3], in experiment [4], in experiment [5] and in experiment [6] was over 100 µM throughout. This compound also displayed a TGI in [7] of over 100 µM.

Consider `C[C@]12CC/C(=N\N)C[C@@H]1CC[C@@H]1[C@@H]2CC[C@]2(C)/C(=N/N)CC[C@@H]12`, for which the GI50 in experiment [8], in [1], in experiment [2], in experiment [3], in experiment [9] and in [4] was over 100 µM in each case. Moreover, the GI50 in [5], in experiment [6] and in experiment [7] was over 100 µM in each case. Besides, the TGI in experiment [8], in [1], in experiment [2], in experiment [3], in experiment [9] and in experiment [4] was over 100 µM throughout. The TGI in [5], in [6] and in experiment [7] was over 100 µM in each case.

As to `Cc1cc2c(cc1C)[n+](=O)c(C(=O)/C=C/c1ccc(Cl)cc1)c(C)n2[O-]`, the TGI is 54.1 µM in [1]; 58.5 µM in experiment [2]; over 100 µM in experiment [3]; over 100 µM in experiment [9]; 81.9 µM in experiment [4]; 73.5 µM in experiment [5]. Also, the TGI in experiment [6] is over 100 µM; in experiment [7], 63.7 µM.

For the compound `COc1cc(N=Nc2ccccc2)cc(/C=N\[N-]C(N)=S)c1[O-].COc1cc(N=Nc2ccccc2)cc(/C=N\[N-]C(N)=S)c1[O-].[Fe+4]`, the GI50 in [1] is over 100 µM; in [2] it was 48.1 µM; in experiment [3], 15.8 µM; in experiment [4] it was 17.8 µM; in experiment [5], 5.59 µM; in [6], 50.2 µM. The GI50 in experiment [7] is 29.1 µM. Further, the TGI was over 100 µM in experiment [1]; over 100 µM in [2]; 92.6 µM in [3]; over 100 µM in [4]; 44.9 µM in [5]; over 100 µM in experiment [6]. The same compound returned a TGI in experiment [7] of over 100 µM.

As for `O=S1(=O)N(Cc2ccccc2)[C@@H](Cc2ccccc2)C2O[C@H]2[C@H](Cc2ccccc2)N1Cc1ccccc1` (stereo partly specified), the GI50 in experiment [8] is 3.06 µM; in experiment [1], over 7.5 µM; in [2], 3.9 µM; in [3], over 7.5 µM; in [9] it was 0.949 µM; in experiment [4] it was over 7.5 µM. In addition, the GI50 is 4.12 µM in [5], over 7.5 µM in [6] and 5.06 µM in [7]. The TGI in experiment [8], in [1], in [2], in [3], in experiment [9] and in experiment [4] was over 7.5 µM in each case. Also, the TGI in experiment [5], in experiment [6] and in experiment [7] was over 7.5 µM each time.

For `Cc1[nH]c(C(=O)Nc2ccc(C(=O)N3CCNCC3)cc2OC(C)C)c(Cl)c1Cl`, the GI50 in [8] was 2.02 µM; in [1] it was 1.94 µM; in experiment [2], 1.8 µM; in experiment [3], 2.57 µM; in experiment [9], 3.61 µM; in experiment [4] it was 3.57 µM. For the same compound, the results for the GI50 in [5], in [6] and in experiment [7] were 2.32 µM, 1.9 µM and 1.58 µM, respectively. Further, the TGI in [8] worked out at 5.44 µM; in experiment [1], 3.57 µM; in experiment [2], 3.32 µM; in experiment [3], 6.94 µM; in experiment [9], 15.1 µM; in experiment [4], 11.8 µM. The results for the TGI in [5], in experiment [6] and in experiment [7] were 5.1 µM, 3.59 µM and 3.49 µM, respectively.

In the case of `O=C(O)CNS(=O)(=O)c1ccc(NC(=O)c2ccc(F)cc2)cc1`, the TGI in experiment [1], in experiment [2], in [3], in experiment [9], in experiment [4] and in experiment [5] was over 100 µM each time. Also, the TGI in experiment [6] and in experiment [7] was over 100 µM in each case.

For the compound `CC1=C(SCc2ccccc2)C(=O)c2ccccc2C1=O`, the TGI in experiment [8] was 37.3 µM; in experiment [2], 36.9 µM; in experiment [9] it was 26.2 µM; in experiment [4], 27.2 µM; in experiment [5], 4.51 µM; in experiment [6] it was over 100 µM. Moreover, in experiment [7], the TGI is 25.3 µM.

Take `O=C1CCC2CCc3cccc4oc1c2c34` (stereo unspecified): the TGI in experiment [1], in [2], in experiment [3], in [9], in experiment [4] and in [5] was over 100 µM throughout. The TGI in experiment [6] and in experiment [7] was over 100 µM each time.

`Cc1ccc2c[c]1[Hg][CH2]COS2(=O)=O`: the GI50 is 18.3 µM in experiment [8]; 17.4 µM in [1]; 17.8 µM in experiment [2]; 11.3 µM in [4]; 18.1 µM in [5]; 17.8 µM in experiment [6]. Besides, in experiment [7], the GI50 is 5.3 µM. Also, the TGI in experiment [8] came out at 32.4 µM; in experiment [1], 31.2 µM; in [2], 31.7 µM; in experiment [4], 23.4 µM; in experiment [5] it was 34.1 µM; in experiment [6], 31.6 µM. Also, in experiment [7], the TGI stood at 20.7 µM.

With `COC(=O)Nc1nc2ccc(Oc3ccc(NC(=O)Nc4cccc(Br)c4)cc3)cc2[nH]1`, the GI50 is 1.85 µM in experiment [8]; 2.12 µM in experiment [1]; 4.66 µM in experiment [2]; 1.59 µM in experiment [3]; 8.74 µM in experiment [9]; 3.39 µM in experiment [4]. Moreover, the values for the GI50 in experiment [5], in [6] and in experiment [7] were 4.03 µM, 1.48 µM and 3.69 µM, respectively. The TGI in [8] was over 12.7 µM; in experiment [1], over 17.8 µM; in experiment [2], 12 µM; in experiment [3] it was over 25 µM; in experiment [9], over 25 µM; in experiment [4], 7.42 µM. In addition, the figures for the TGI in [5], in experiment [6] and in experiment [7] were over 15.4 µM, 17.6 µM and 11.8 µM, respectively.

Turning to `OCCCCC#Cc1ccccc1C#Cc1ccccc1F`, the GI50 is 20 µM in [8]; 14.6 µM in experiment [1]; 20.8 µM in [2]; 24.6 µM in experiment [3]; 24.2 µM in experiment [9]; over 100 µM in [4]. Besides, the GI50 is 21.2 µM in experiment [5], 22.2 µM in [6] and 15 µM in experiment [7]. Besides, the TGI was 48.2 µM in experiment [8]; 29.6 µM in [1]; 49.7 µM in experiment [2]; 48.7 µM in experiment [3]; 51.4 µM in experiment [9]; over 100 µM in experiment [4]. The results for the TGI in [5], in [6] and in [7] were 49.8 µM, 44.4 µM and 33.1 µM, respectively.

In the case of `CN(C)c1ccc(/C=C/C(=O)C(C)(C)C)cc1Br`, the TGI was determined as 43.2 µM in experiment [1]; 87.3 µM in experiment [2]; 85.1 µM in experiment [3]; 91.9 µM in experiment [9]; 52.2 µM in experiment [4]; 71.7 µM in [5]. The results for the TGI in experiment [6] and in [7] were 60.2 µM and over 100 µM, respectively.

As to `CCCCCCCCCCCCCCCC(=O)OCC1OC(n2cnc3c(=S)nc(N)[nH]c32)C(OC(=O)CCCCCCCCCCCCCCC)C1OC(=O)CCCCCCCCCCCCCCC` (stereo unspecified), the GI50 in [8] is 9.96 µM; in [1], 1.5 µM; in experiment [2] it was 1.99 µM; in [3], 1.85 µM; in [9], 1.05 µM; in experiment [4], over 19.5 µM. In addition, the figures for the GI50 in [5], in [6] and in experiment [7] were 2.95 µM, 11.1 µM and 22.7 µM, respectively. Besides, the TGI was over 50 µM in [8]; over 17.9 µM in experiment [1]; over 50 µM in experiment [2]; over 50 µM in [3]; over 14.8 µM in [9]; over 50 µM in [4]. Also, the TGI in experiment [5], in experiment [6] and in experiment [7] was over 50 µM throughout.

For `CN(C)C(=S)NN=C(c1ccccn1)c1ccccn1`, the GI50 is under 0.0123 µM in [8]; under 0.0147 µM in [1]; 0.183 µM in [2]; under 0.0127 µM in experiment [9]; under 0.01 µM in experiment [4]; under 0.01 µM in experiment [5]. Further, the GI50 in [6] was under 0.0115 µM; in [7], under 0.01 µM. Moreover, the TGI in [8] is over 43.8 µM; in experiment [1] it was 0.349 µM; in [2], 16.5 µM; in experiment [3], over 65.2 µM; in [9], 6.59 µM; in [4] it was over 83.1 µM. Moreover, the TGI in experiment [5] is 2.15 µM; in experiment [6], over 40.2 µM; in [7] it was 21.8 µM.

In the case of `N#CCCN(CCC#N)c1ccc(/C=C2\N=C(COc3ccc(Cl)cc3Cl)OC2=O)cc1`, the TGI in [1], in experiment [2], in experiment [3], in [9], in experiment [4] and in experiment [5] was over 100 µM throughout. Also, the TGI in [6] and in experiment [7] was over 100 µM throughout.

`CS(=O)(=O)N(CCC#N)c1ccc(/C=N/NC(=O)CC(=O)Nc2cccc(Cl)c2)cc1`: the TGI in [1], in [2], in experiment [3], in experiment [9], in experiment [4] and in experiment [5] was over 100 µM in each case. Also, the TGI in experiment [6] and in experiment [7] was over 100 µM each time.

As to `Oc1ccc2occ3c2c1CCC3`, the TGI in [1], in experiment [2], in [3], in experiment [9], in [4] and in experiment [5] was over 100 µM in each case. Further, the TGI in experiment [6] and in experiment [7] was over 100 µM throughout.

Turning to `CCNc1c(C(=O)N(CC)CC)c(=O)[nH]c2ncccc12`, the TGI in experiment [1], in experiment [2], in [3], in [9], in [4] and in experiment [5] was over 100 µM each time. The TGI in [6] and in experiment [7] was over 100 µM throughout.

On to `NC(N)=N/N=C/c1c(-c2cccs2)nc2sccn12`, for which the GI50 in experiment [8] is 11.1 µM; in experiment [1], 16.6 µM; in [3], 1.61 µM; in [9], 2.57 µM; in [4], 5.89 µM; in experiment [5], 8.48 µM. Also, the GI50 in experiment [6] is 12.8 µM. The TGI in experiment [8] came out at 23.1 µM; in experiment [1], 30.2 µM; in experiment [3], 27.1 µM; in [9] it was 16 µM; in experiment [4] it was 20 µM; in experiment [5], 36.3 µM. In experiment [6], this compound returned a TGI of 28.2 µM.

With `CC1CCC2(NC1)OC1CC3[C@@H]4CC=C5C=CCC[C@]5(C)C4CC[C@]3(C)C1C2C` (stereo partly specified), the TGI in [1] is 50.9 µM; in [2], 35.3 µM; in experiment [3], 55.4 µM; in experiment [9], over 100 µM; in experiment [4], 51 µM; in [5], 66.3 µM. In addition, the TGI in [6] was 41.2 µM; in experiment [7], over 100 µM.

For the compound `c1cc(C2CCCCC2)ccc1OCCCCCCN1CCNCC1`, the GI50 is 2.15 µM in [8]; 1.98 µM in experiment [1]; 1.78 µM in experiment [2]; 1.51 µM in [3]; 2.01 µM in experiment [9]; 1.95 µM in experiment [4]. The GI50 in experiment [6] was 1.78 µM; in experiment [7] it was 2.04 µM. The TGI in experiment [8] turned out to be 5.97 µM; in [1], 4.33 µM; in experiment [2] it was 3.24 µM; in experiment [3], 3.39 µM; in experiment [9] it was 4.54 µM; in experiment [4], 4.52 µM. The TGI in experiment [6] was determined as 3.4 µM; in experiment [7], 3.89 µM.
